Assay [1] relates to MCF7. In words: Cytotoxicity against human MCF7 cells assessed as decrease in cell viability after 48 hrs by MTT assay. It counts as functional, cell-based. The settings on record: MCF7, 48 h. For orientation: Tetrazolium dyes change colour on reduction, which living cells bring about.
Assay [2] concerns HepG2. In words: Cytotoxicity against human HepG2 cells assessed as decrease in cell viability after 48 hrs by MTT assay. It is filed as functional, cell-based. The settings on record: HepG2, 48 h.
Assay [3] concerns SMMC-7721. In words: Cytotoxicity against human SMMC7721 cells assessed as decrease in cell viability after 48 hrs by MTT assay. It counts as functional, cell-based. The settings on record: SMMC-7721, 48 h.
Assay [4] relates to HepG2. In words: Induction of apoptosis in human HepG2 cells assessed as necrotic cells at 6.25 uM after 48 hrs using annexin V-FITC/propidium iodide staining by flow cytometry (reference value: 2.39%). It counts as functional.
Assay [5] concerns HepG2. The assay is described as follows: Induction of apoptosis in human HepG2 cells assessed as late stage apoptotic cells at 6.25 uM after 48 hrs using annexin V-FITC/propidium iodide staining by flow cytometry (reference value: 0.65%). It is filed as functional. In general terms: A flow cytometer gives signals particle by particle.
For assay [6], the system named is HepG2. The assay is described as follows: Induction of apoptosis in human HepG2 cells assessed as viable cells at 6.25 uM after 48 hrs using annexin V-FITC/propidium iodide staining by flow cytometry (reference value: 86.80%). It is filed as functional. The settings on record: HepG2, 48 h, read-out: Activity.
The subject of assay [7] is HepG2. The assay is described as follows: Induction of apoptosis in human HepG2 cells assessed as early stage apoptotic cells at 6.25 uM after 48 hrs using annexin V-FITC/propidium iodide staining by flow cytometry (reference value: 10.15%). It is filed as functional.
Assay [8] deals with HepG2. The assay is described as follows: Induction of apoptosis in human HepG2 cells assessed as necrotic cells at 12.50 uM after 48 hrs using annexin V-FITC/propidium iodide staining by flow cytometry (reference value: 2.39%). It counts as functional.
For assay [9], the system named is HepG2. In words: Induction of apoptosis in human HepG2 cells assessed as late stage apoptotic cells at 12.50 uM after 48 hrs using annexin V-FITC/propidium iodide staining by flow cytometry (reference value: 0.65%). It counts as functional.
Assay [10] deals with HepG2. The assay is described as follows: Induction of apoptosis in human HepG2 cells assessed as viable cells at 12.50 uM after 48 hrs using annexin V-FITC/propidium iodide staining by flow cytometry (reference value: 86.80%). The settings on record: HepG2, 48 h, read-out: Activity. It is filed as functional.
Assay [11] concerns HepG2. The assay is described as follows: Induction of apoptosis in human HepG2 cells assessed as early stage apoptotic cells at 12.50 uM after 48 hrs using annexin V-FITC/propidium iodide staining by flow cytometry (reference value: 10.15%). It is filed as functional.
In assay [12] the test system is HepG2. The assay is described as follows: Induction of apoptosis in human HepG2 cells assessed as necrotic cells at 25 uM after 48 hrs using annexin V-FITC/propidium iodide staining by flow cytometry (reference value: 2.39%). It counts as functional.
The test system of assay [13] is HepG2. In words: Induction of apoptosis in human HepG2 cells assessed as late stage apoptotic cells at 25 uM after 48 hrs using annexin V-FITC/propidium iodide staining by flow cytometry (reference value: 0.65%). It counts as functional.
Assay [14] deals with HepG2. The assay is described as follows: Induction of apoptosis in human HepG2 cells assessed as viable cells at 25 uM after 48 hrs using annexin V-FITC/propidium iodide staining by flow cytometry (reference value: 86.80%). It counts as functional. The settings on record: HepG2, 48 h, read-out: Activity.
Assay [15] concerns HepG2. The assay is described as follows: Induction of apoptosis in human HepG2 cells assessed as early stage apoptotic cells at 25 uM after 48 hrs using annexin V-FITC/propidium iodide staining by flow cytometry (reference value: 10.15%). It counts as functional.
In assay [16] the test system is HepG2. In words: Induction of apoptosis in human HepG2 cells assessed as apoptotic rate at 6.25 uM after 48 hrs using annexin V-FITC/propidium iodide staining by flow cytometry (reference value: 10.80%). It counts as functional.
Assay [17] concerns HepG2. The assay is described as follows: Induction of apoptosis in human HepG2 cells assessed as apoptotic rate at 12.50 uM after 48 hrs using annexin V-FITC/propidium iodide staining by flow cytometry (reference value: 10.80%). It is filed as functional.
Assay [18] deals with HepG2. The assay is described as follows: Induction of apoptosis in human HepG2 cells assessed as apoptotic rate at 25 uM after 48 hrs using annexin V-FITC/propidium iodide staining by flow cytometry (reference value: 10.80%). It counts as functional.

Molecules are shown by their SMILES. Where only a bound is given, the exact number is not on record here.

For the molecule `COC(=O)[C@@]12C[C@@H]3C[C@H]([C@H](C)O)[C@H]1NCCc1c2n(c2cc(OC)ccc12)C3`, the IC50 in assay [1], in assay [2] and in [3] was greater than 100 µM throughout.

Consider `CC[C@]1(C(=O)O)C[C@@H](C(=O)OC)C2=Nc3cc(OC)ccc3[C@@]23CCN(CCO)[C@@H]13`, for which the IC50 in [1], in [2] and in assay [3] was greater than 100 µM in each case.

For `C/C=C1/CN(C)[C@H]2Cc3c([nH]c4ccccc34)[C@H](c3cc4c5c6n(c4cc3OC)C[C@H]3C[C@@H](CC)[C@@H](NCC5)[C@@]6(C(=O)OC)C3)C[C@H]1[C@]2(CO)C(=O)OC`, the IC50 – broadly, the midpoint of a concentration-inhibition curve – in assay [1] came to 8.54 µM; in [2], 3.31 µM; in assay [3], 6.76 µM. The Activity came out at 3.17% in assay [4]; 1.63% in [5]; 10.19% in [7]; 7.85% in assay [8]; 8.47% in assay [9]; 11.3% in [11]. Moreover, the Activity in assay [12] was 15.59%; in assay [13], 30.97%; in assay [15] it was 19.54%; in assay [16], 11.82%; in assay [17], 19.77%; in assay [18] it was 50.51%. Besides, the viability at 6.25 µM in [6] was 85%. The viability at 12.5 µM in [10] stood at 72.4%. In addition, the viability at 25 µM in assay [14] was determined as 33.9%.

`CC[C@@]12C[C@@H](C(=O)OC)C3=Nc4cc(OC)ccc4[C@@]34CCN(CCOC1=O)[C@H]24`: the IC50 in [1], in assay [2] and in [3] was greater than 100 µM throughout.

On to `C/C=C1/CN(C)[C@H]2Cc3c([nH]c4ccccc34)[C@H](c3cc4c(cc3OC)c3c5n4C[C@H]4C[C@@H](CC)[C@@H](NCC3)[C@@]5(C(=O)OC)C4)C[C@H]1[C@]2(CO)C(=O)OC`, for which the IC50 in [1] is 11 µM; in assay [2], 11.3 µM; in assay [3], 15 µM.

Regarding `COC(=O)[C@@]12C[C@@H]3C[C@H]([C@H](C)O)[C@H]1NCCc1c2n(c2ccccc12)C3`, the IC50 in assay [1], in assay [2] and in assay [3] was greater than 100 µM in each case.

For the molecule `C/C=C1/CN(C)[C@H]2Cc3c([nH]c4ccccc34)[C@H](c3cc4c5c([nH]c4cc3OC)[C@@]3(C(=O)OC)C[C@H]4C[C@H](CC)[C@H]3N(CC5)C4)C[C@H]1[C@]2(CO)C(=O)OC`, the IC50 in assay [1] came out at 38 µM; in assay [2], 12.8 µM; in [3], 4.63 µM.

For the molecule `CC[C@H]1C[C@@H]2Cn3c4c(c5ccc(OC)cc53)CCN[C@H]1[C@@]4(C(=O)OC)C2`, the IC50 in assay [1], in assay [2] and in assay [3] was greater than 100 µM each time.

`CC[C@@]12C[C@@H](C(=O)OC)C3=Nc4cc(OC)ccc4[C@@]34CCN(CCOC1=O)[C@@H]24`: the IC50 in [1], in [2] and in [3] was greater than 100 µM each time.

With `CC[C@]1(C(=O)O)C[C@@H](C(=O)OC)C2=Nc3cc(OC)ccc3[C@@]23CCN(CCO)[C@H]13`, the IC50 in [1], in assay [2] and in assay [3] was greater than 100 µM in each case.

For `CC[C@H]1C[C@H]2C[C@@]3(C(=O)OC)c4c(c5ccc(OC)cc5n4C2=O)CCN[C@H]13`, the IC50 in assay [1], in assay [2] and in assay [3] was greater than 100 µM each time.

As for `C/C=C1/CN(C)[C@H]2Cc3c([nH]c4ccccc34)[C@H](c3c(OC)ccc4c5c([nH]c34)[C@@]3(C(=O)OC)C[C@H]4C[C@H](CC)[C@@H]3N(CC5)C4)C[C@H]1[C@]2(CO)C(=O)OC`, the values for the IC50 in assay [1], in [2] and in assay [3] were 14.6 µM, 13.1 µM and 12.6 µM, respectively.

These data come from ChEMBL document CHEMBL3286395, “Tabercarpamines A-J, apoptosis-inducing indole alkaloids from the leaves of Tabernaemontana corymbosa” (J Nat Prod, 2014).
